Read-outs that look alike come from different tables or passages of the source.
Columns and labels:
[1] = tested on: four bacterial species (Pseudomonas aeruginosa, Klebsiella pneumoniae, Bacillus subtilis, Staphylococcus aureus); experiment: Preservation of kaolin slurry Kaolux HS (pH 6.6); assay type: cell-based, bacteria
Text: Two samples of kaolin slurries (Kaolux HS [particle size finer than 2 microns, 83.4%; 64.9% solids; pH 6.6] and Kaogloss [particle size finer than 2 microns, 90.7%; 70.1% solids; pH 6.3]), are obtained from Thiele Kaolin Company, Sandersville, Ga. Samples of the two slurries are inoculated with four bacterial species (described in Example 8), sampled to confirm the initial size of the bacterial community, and treated with selected concentrations of DBMAL. Samples for bacterial enumeration are collected after 24 hr and 48 hr incubation periods.

[2] = tested on: amoeba (Acanthamoeba polypohaga) fed Legionella pneumophila (AfLp); assay type: cell-based; details: for Active concentration (ppm) required for complete kill (6 log reduction): Amoeba fed Legionella
[3] = Stability against hydrolysis in buffered dilute solutions, HPLC
[4] = tested on: bacteria in Cooling Tower water; experiment: Efficacy in cooling tower water sample (about pH 8.3), serial dilution count; assay type: cell-based
[5] = tested on: mixed species consortium of bacteria; experiment: Preservation of 10% CaCO3 suspensions; details: 10 ppm, pH 7.0, 8.0, 9.0
Free Legionella = assay type: cell-based, Legionella pneumophila
[6] = tested on: bacteria isolated from Cooling Tower water; experiment: Efficacy in sterile artificial Cooling Tower water (approx. pH 8.5); assay type: cell-based; details: 30° C.
bacterial consortium = experiment: Preservation of calcium carbonate slurry Hydrocarb 90 (pH 8.7); details: for change in populations of bacteria (FIG. 6): 5 ppm; for change in populations of bacteria (FIG. 6) / decrease in numbers of bacteria (FIG. 6): 24-hr contact; for decrease in numbers of bacteria (FIG. 6): 10 ppm
[7] = tested on: Pseudomonas aeruginosa ATCC 10145; experiment: Bactericidal efficacy in synthetic salts water pH 8.5; assay type: cell-based; details: for Dosage required for 3 log10 bacterial reduction (ppm, active): 37° C.
Experimental: A sterile synthetic salts water is prepared and inoculated with Pseudomonas aeruginosa ATCC 10145 at about 10^7 CFU/mL. The synthetic water is prepared to contain (in 1 liter deionized water) the following: CaCl2, 0.2203 g; MgSO4, 0.1847 g; and NaHCO3, 0.2033 g. The final pH of the synthetic cooling water is adjusted to 8.5. Aliquots of the cell suspension are then treated with biocides at selected dosage levels. The same contaminated water sample without biocide is used as control. After incubating at 37° C. for different time intervals, numbers of surviving bacteria are enumerated using a serial dilution method. After incubating for 24 hr, all cell suspensions are reinoculated with Pseudomonas aeruginosa ATCC 10145 at 10^6 CFU/mL. The efficacy results for […]

[8] = tested on: bacteria isolated from field; experiment: Efficacy in semi-synthetic metal working fluid; assay type: cell-based; details: room temperature, MWF
[9] = going from pH 6 to pH 8.9; cited from earlier work
[10] = 12.5 ppm active, 48 hrs, re-inoculated
[11] = 12.5 ppm active, 72 hrs, re-inoculated
[12] = 12.5 ppm active, 96 hrs, re-inoculated
[13] = 25 ppm active, 48 hrs, re-inoculated
[14] = 25 ppm active, 72 hrs, re-inoculated
[15] = 25 ppm active, 96 hrs, re-inoculated
[16] = 50 ppm active, 48 hrs, re-inoculated
[17] = 50 ppm active, 72 hrs, re-inoculated
[18] = 50 ppm active, 96 hrs, re-inoculated
[19] = 48 hr, pH 8.5, reinoculated after 24 hr

Compound: NC(=O)C(Br)(Br)C(N)=O [DBMAL, 2,2-Dibromomalonamide]
- change in numbers of viable bacteria (FIG. 3) ([1]; 100 ppm to 150 ppm, 48 hr contact time): decrease slightly
- decrease in viable bacteria (FIG. 3) ([1]; 175 ppm): approximately one
- reduction in viable bacteria (FIG. 3) ([1]; concentrations higher than 175 ppm): at least five
- Active concentration (ppm) required for complete kill (6 log reduction) ([2]; 2 hours): 12.5 ppm
- Active concentration (ppm) required for complete kill (6 log reduction) ([2]; 24 hours): 3.12 ppm
- level needed for 6 log kill of AfLp relative to that needed for free cells ([2]; corresponding time points (2 and 24 hours)): about twice
- Calculated Percent Reduction of the Active Ingredient ([3]; pH 6.9, T = 30 C., 48 hours): 0%
- Calculated Percent Reduction of the Active Ingredient ([3]; pH 6.9, T = 30 C., 72 hours): 0%
- Calculated Percent Reduction of the Active Ingredient ([3]; pH 8, T = −1 C., 48 hours): 0%
- Calculated Percent Reduction of the Active Ingredient ([3]; pH 8, T = −1 C., 72 hours): 0%
- Calculated Percent Reduction of the Active Ingredient ([3]; pH 8, T = −1 C., 96 hours): 0%
- Calculated Percent Reduction of the Active Ingredient ([3]; pH 9, T = −1 C., 48 hours): 21%
- Calculated Percent Reduction of the Active Ingredient ([3]; pH 9, T = −1 C., 72 hours): 12%
- Calculated Percent Reduction of the Active Ingredient ([3]; pH 9, T = −1 C., 96 hours): 24%
- Bacterial log10 reduction after biocide addition ([4]; 12.5 ppm active, 1 hr): 1.2 log10
- Bacterial log10 reduction after biocide addition [4, 10]: 5.2 log10
- Bacterial log10 reduction after biocide addition [4, 11]: 1.2 log10
- Bacterial log10 reduction after biocide addition [4, 12]: 0.8 log10
- Bacterial log10 reduction after biocide addition ([4]; 25 ppm active, 1 hr): 4.3 log10
- Bacterial log10 reduction after biocide addition ([4]; 25 ppm active, 3 hr): >=5.7 log10
- Bacterial log10 reduction after biocide addition ([4]; 25 ppm active, 24 hrs): >=6.3 log10
- Bacterial log10 reduction after biocide addition [4, 13]: 6.0 log10
- Bacterial log10 reduction after biocide addition [4, 14]: 3.0 log10
- Bacterial log10 reduction after biocide addition [4, 15]: 3.2 log10
- Bacterial log10 reduction after biocide addition ([4]; 50 ppm active, 1 hr): >=5.3 log10
- Bacterial log10 reduction after biocide addition ([4]; 50 ppm active, 3 hr): 5.5 log10
- Bacterial log10 reduction after biocide addition ([4]; 50 ppm active, 24 hrs): >=6.3 log10
- Bacterial log10 reduction after biocide addition [4, 16]: >=6.3 log10
- Bacterial log10 reduction after biocide addition [4, 17]: 3.8 log10
- Bacterial log10 reduction after biocide addition [4, 18]: 4.2 log10
- duration of effectiveness (>3 log10 killing) compared with DBNPA ([4]; same active concentration of 12.5 ppm): one day more
- duration of effectiveness (>3 log10 killing) compared with DBNPA ([4]; same active concentration of 50 ppm and 25 ppm): two days more
- bacterial counts (FIG. 5) ([5]; 2-hr contact): increased inhibition of the bacteria at pH 9.0 versus pH 7.0 and 8.0
- bacterial counts (FIG. 5) ([5]; 24 hr contact, limit of detection): 1.0 log10
- Active concentration (ppm) required for complete kill (6 log reduction) (Free Legionella; 2 hours): 6.25 ppm
- Active concentration (ppm) required for complete kill (6 log reduction) (Free Legionella; 24 hours): 1.56 ppm
- Minimum biocide dosage (ppm, active) needed for at least 3 log10 bacterial reduction ([6]; 1 h): 15.0 ppm
- Minimum biocide dosage (ppm, active) needed for at least 3 log10 bacterial reduction ([6]; 3 h): 11.0 ppm
- Minimum biocide dosage (ppm, active) needed for at least 3 log10 bacterial reduction ([6]; 24 h): 5.0 ppm
- Minimum biocide dosage (ppm, active) needed for at least 3 log10 bacterial reduction ([6]; 48 h, reinoculated): 5.0 ppm
- Minimum biocide dosage (ppm, active) needed for at least 3 log10 bacterial reduction ([6]; 72 h, reinoculated): 5.0 ppm
- Minimum biocide dosage (ppm, active) needed for at least 3 log10 bacterial reduction ([6]; 96 h, reinoculated): 15.0 ppm
- change in populations of bacteria (FIG. 6) (bacterial consortium): decrease relatively little
- decrease in numbers of bacteria (FIG. 6) (bacterial consortium): more than 2.5 orders of magnitude
- difference in numbers of bacteria versus samples with 50 ppm DBNPA (FIG. 7) (bacterial consortium; 20 ppm DBMAL, 24-hr contact time): approximately one-quarter
- single dose efficacy comparison (FIG. 7) (bacterial consortium; single dose of 20 ppm, 24-hr contact time): as effective as 50 ppm DBNPA or 16 ppm CMIT
- Dosage required for 3 log10 bacterial reduction (ppm, active) ([7]; 1 hr, pH 8.5): 14.8 ppm
- Dosage required for 3 log10 bacterial reduction (ppm, active) ([7]; 3 hr, pH 8.5): 6.6 ppm
- Dosage required for 3 log10 bacterial reduction (ppm, active) ([7]; 24 hr, pH 8.5): 6.6 ppm
- Dosage required for 3 log10 bacterial reduction (ppm, active) [7, 19]: 6.6 ppm
- long term bactericidal efficacy compared with DBNPA ([7]; after 48 hour incubation and rechallenge with P. aeruginosa cells): better than DBNPA
- Minimum dosage (ppm, active) required for at least 3 log10 reduction in bacterial counts ([8]; 2 h): 57 ppm
- Minimum dosage (ppm, active) required for at least 3 log10 reduction in bacterial counts ([8]; 4 h): 44 ppm
- Minimum dosage (ppm, active) required for at least 3 log10 reduction in bacterial counts ([8]; 24 h): 44 ppm
- Minimum dosage (ppm, active) required for at least 3 log10 reduction in bacterial counts ([8]; 48 h): 34 ppm
- Minimum dosage (ppm, active) required for at least 3 log10 reduction in bacterial counts ([8]; 72 h): 26 ppm
- Minimum dosage (ppm, active) required for at least 3 log10 reduction in bacterial counts ([8]; 96 h): 34 ppm

Compound: N#CC(Br)(Br)C(N)=O [DBNPA, 2,2-Dibromo-3-nitrilopropionamide]
- level of DBMAL or DBNPA remaining (HPLC) ([3]; pH 6.9, T = 30 C., 0 hours): 3991
- level of DBMAL or DBNPA remaining (HPLC) ([3]; pH 6.9, T = 30 C., 2 hours): 4155
- level of DBMAL or DBNPA remaining (HPLC) ([3]; pH 6.9, T = 30 C., 24 hours): 2557
- level of DBMAL or DBNPA remaining (HPLC) ([3]; pH 6.9, T = 30 C., 48 hours): 1361
- level of DBMAL or DBNPA remaining (HPLC) ([3]; pH 6.9, T = 30 C., 72 hours): 918
- level of DBMAL or DBNPA remaining (HPLC) ([3]; pH 6.9, T = 30 C., 96 hours): 658
- level of DBMAL or DBNPA remaining (HPLC) ([3]; pH 8, T = −1 C., 0 hours): 4068
- level of DBMAL or DBNPA remaining (HPLC) ([3]; pH 8, T = −1 C., 2 hours): 3998
- level of DBMAL or DBNPA remaining (HPLC) ([3]; pH 8, T = −1 C., 24 hours): 3506
- level of DBMAL or DBNPA remaining (HPLC) ([3]; pH 8, T = −1 C., 48 hours): 3578
- level of DBMAL or DBNPA remaining (HPLC) ([3]; pH 8, T = −1 C., 72 hours): 3149
- level of DBMAL or DBNPA remaining (HPLC) ([3]; pH 8, T = −1 C., 96 hours): 3070
- level of DBMAL or DBNPA remaining (HPLC) ([3]; pH 9, T = −1 C., 0 hours): 3842
- level of DBMAL or DBNPA remaining (HPLC) ([3]; pH 9, T = −1 C., 2 hours): 2818
- level of DBMAL or DBNPA remaining (HPLC) ([3]; pH 9, T = −1 C., 24 hours): 1256
- level of DBMAL or DBNPA remaining (HPLC) ([3]; pH 9, T = −1 C., 48 hours): 659
- level of DBMAL or DBNPA remaining (HPLC) ([3]; pH 9, T = −1 C., 72 hours): 363
- level of DBMAL or DBNPA remaining (HPLC) ([3]; pH 9, T = −1 C., 96 hours): 239
- Bacterial log10 reduction after biocide addition ([4]; 12.5 ppm active, 1 hr): 5.3 log10
- Bacterial log10 reduction after biocide addition [4, 10]: 1.5 log10
- Bacterial log10 reduction after biocide addition [4, 11]: 0.7 log10
- Bacterial log10 reduction after biocide addition [4, 12]: 0.3 log10
- Bacterial log10 reduction after biocide addition ([4]; 25 ppm active, 1 hr): 5.2 log10
- Bacterial log10 reduction after biocide addition ([4]; 25 ppm active, 3 hr): >=5.7 log10
- Bacterial log10 reduction after biocide addition ([4]; 25 ppm active, 24 hrs): >=6.3 log10
- Bacterial log10 reduction after biocide addition [4, 13]: 4.2 log10
- Bacterial log10 reduction after biocide addition [4, 14]: 1.0 log10
- Bacterial log10 reduction after biocide addition [4, 15]: 0.7 log10
- Bacterial log10 reduction after biocide addition ([4]; 50 ppm active, 1 hr): >=5.3 log10
- Bacterial log10 reduction after biocide addition ([4]; 50 ppm active, 3 hr): >=5.7 log10
- Bacterial log10 reduction after biocide addition ([4]; 50 ppm active, 24 hrs): >=6.3 log10
- Bacterial log10 reduction after biocide addition [4, 16]: 6.1 log10
- Bacterial log10 reduction after biocide addition [4, 17]: 1.0 log10
- Bacterial log10 reduction after biocide addition [4, 18]: 0.8 log10
- Minimum biocide dosage (ppm, active) needed for at least 3 log10 bacterial reduction ([6]; 1 h): 8.0 ppm
- Minimum biocide dosage (ppm, active) needed for at least 3 log10 bacterial reduction ([6]; 3 h): 8.0 ppm
- Minimum biocide dosage (ppm, active) needed for at least 3 log10 bacterial reduction ([6]; 24 h): 11.0 ppm
- Minimum biocide dosage (ppm, active) needed for at least 3 log10 bacterial reduction ([6]; 48 h, reinoculated): 15.0 ppm
- Minimum biocide dosage (ppm, active) needed for at least 3 log10 bacterial reduction ([6]; 72 h, reinoculated): 15.0 ppm
- Minimum biocide dosage (ppm, active) needed for at least 3 log10 bacterial reduction ([6]; 96 h, reinoculated): 21.0 ppm
- change in populations of bacteria (FIG. 6) (bacterial consortium): decrease relatively little
- decrease in numbers of bacteria (FIG. 6) (bacterial consortium): approximately 0.5 orders of magnitude
- Dosage required for 3 log10 bacterial reduction (ppm, active) ([7]; 1 hr, pH 8.5): 2.9 ppm
- Dosage required for 3 log10 bacterial reduction (ppm, active) ([7]; 3 hr, pH 8.5): 2.9 ppm
- Dosage required for 3 log10 bacterial reduction (ppm, active) ([7]; 24 hr, pH 8.5): 4.4 ppm
- Dosage required for 3 log10 bacterial reduction (ppm, active) [7, 19]: 50.0 ppm
- Minimum dosage (ppm, active) required for at least 3 log10 reduction in bacterial counts ([8]; 2 h): 42 ppm
- Minimum dosage (ppm, active) required for at least 3 log10 reduction in bacterial counts ([8]; 4 h): 32 ppm
- Minimum dosage (ppm, active) required for at least 3 log10 reduction in bacterial counts ([8]; 24 h): 42 ppm
- Minimum dosage (ppm, active) required for at least 3 log10 reduction in bacterial counts ([8]; 48 h): 55 ppm
- Minimum dosage (ppm, active) required for at least 3 log10 reduction in bacterial counts ([8]; 72 h): 55 ppm
- Minimum dosage (ppm, active) required for at least 3 log10 reduction in bacterial counts ([8]; 96 h): 55 ppm
- factor by which rate of disappearance increases [9]: about 450
